Assay results published in patent publication US20080214606A1, “Methods for the Identification and Use of Compounds Suitable for the Treatment of Drug Resistant Cancer Cells” (The Government of the United States of America as …, priority 2004, published 2008).
Read-outs that look alike come from different tables or passages of the source.

Biological target: ABCB1 (Homo sapiens, UniProt P08183)
Assay: Correlation of ABCB1 expression with drug sensitivity across the NCI-60
Procedure: Expression levels are measured by real-time quantitative RT-PCR using the LightCycler RNA Amplification SYBR Green kit and a LightCycler machine (Roche Biochemicals, Indianapolis, Ind.). Specific oligonucleotide probes are designed for each of the ABC transporters using DNAStar Primer Select (DNASTAR Inc.), and they may be synthesized at Lofstrand Laboratories (Gaithersburg, Md.). When possible, the amplicons are designed to encompass exon-intron boundaries to avoid amplification of genomic DNA. Since the Syber Green assay detects accumulation of double stranded DNA, primers are selected (from a battery consisting of about 200 primers) that amplified a single product of the correct size.
RT-PCR is carried out on 150 ng total RNA, in the presence of 250 nM specific primers. Following reverse transcription (20 min at 50° C.), the PCR reaction consists of 45 cycles of denaturation (15 sec at 95° C.), annealing (30 sec at 58° C.), and elongation (30 sec at 72° C.). No-template (water) reaction mixtures are prepared as negative controls.
During PCR amplification, fluorescence emission is measured and recorded in real time by the LightCycler. Crossing point values are calculated, using the LightCycler software package, by the Fit Points analysis method, with baseline fluorescence set at 1. The SyberGreen assay measures accumulation of double-stranded products, and the appearance of primer dimers limits quantitation at high cycle numbers. […] The raw results are expressed as number of cycles to reach the crossing point. If the desired product is not detected, the corresponding value is adjusted to crossing points indicating no expression. To assess the contribution of experimental artifacts, selected cell lines are assessed in replicate.
Both sets are available at http://discover.nci.nih.gov. The two are combined to form a joint dataset that includes 1429 compounds.
To determine quantitatively how well the 47 genes cluster the cell lines by their tissues of origin, a statistical method is employed wherein the kappa statistic is used to indicate how well the observed clusters correspond to the nine tissue-of-origin classifications. […] To control the overall false type 1 error rate, both a step-down procedure (Westfall and Young, 1993, Resampling-Based Multiple Testing: Examples and Methods for p-value Adjustment (New York: Wiley)) and a step-up procedure (Reiner et al., 2003, Bioinformatics 19:368-375) were employed to adjust for multiple testing of all 47 genes simultaneously. In the Benjamini-Hochberg procedure the p-values are computed in the standard way by permutation, assuming that all distributions are exchangeable: the number of values in the permuted data with correlations over a threshold, divided by the number of compounds and by the number of permutations. In this analysis, the False Discovery Rate (q-value) at which each compound would be declared was calculated using the step-up procedure for positively correlated test statistics (again true because all correlations being compared are computed against the same ABC gene): in this procedure the first q-value for the largest correlation is the Bonferroni-corrected p-value for that gene; then further q-values are calculated as qj=max(pj*1429/j, qj-1). This procedure limits the expected proportion of false positives in the list 1, . . . , j to at most qj.

ABCB1, sequence (P08183 whole entry): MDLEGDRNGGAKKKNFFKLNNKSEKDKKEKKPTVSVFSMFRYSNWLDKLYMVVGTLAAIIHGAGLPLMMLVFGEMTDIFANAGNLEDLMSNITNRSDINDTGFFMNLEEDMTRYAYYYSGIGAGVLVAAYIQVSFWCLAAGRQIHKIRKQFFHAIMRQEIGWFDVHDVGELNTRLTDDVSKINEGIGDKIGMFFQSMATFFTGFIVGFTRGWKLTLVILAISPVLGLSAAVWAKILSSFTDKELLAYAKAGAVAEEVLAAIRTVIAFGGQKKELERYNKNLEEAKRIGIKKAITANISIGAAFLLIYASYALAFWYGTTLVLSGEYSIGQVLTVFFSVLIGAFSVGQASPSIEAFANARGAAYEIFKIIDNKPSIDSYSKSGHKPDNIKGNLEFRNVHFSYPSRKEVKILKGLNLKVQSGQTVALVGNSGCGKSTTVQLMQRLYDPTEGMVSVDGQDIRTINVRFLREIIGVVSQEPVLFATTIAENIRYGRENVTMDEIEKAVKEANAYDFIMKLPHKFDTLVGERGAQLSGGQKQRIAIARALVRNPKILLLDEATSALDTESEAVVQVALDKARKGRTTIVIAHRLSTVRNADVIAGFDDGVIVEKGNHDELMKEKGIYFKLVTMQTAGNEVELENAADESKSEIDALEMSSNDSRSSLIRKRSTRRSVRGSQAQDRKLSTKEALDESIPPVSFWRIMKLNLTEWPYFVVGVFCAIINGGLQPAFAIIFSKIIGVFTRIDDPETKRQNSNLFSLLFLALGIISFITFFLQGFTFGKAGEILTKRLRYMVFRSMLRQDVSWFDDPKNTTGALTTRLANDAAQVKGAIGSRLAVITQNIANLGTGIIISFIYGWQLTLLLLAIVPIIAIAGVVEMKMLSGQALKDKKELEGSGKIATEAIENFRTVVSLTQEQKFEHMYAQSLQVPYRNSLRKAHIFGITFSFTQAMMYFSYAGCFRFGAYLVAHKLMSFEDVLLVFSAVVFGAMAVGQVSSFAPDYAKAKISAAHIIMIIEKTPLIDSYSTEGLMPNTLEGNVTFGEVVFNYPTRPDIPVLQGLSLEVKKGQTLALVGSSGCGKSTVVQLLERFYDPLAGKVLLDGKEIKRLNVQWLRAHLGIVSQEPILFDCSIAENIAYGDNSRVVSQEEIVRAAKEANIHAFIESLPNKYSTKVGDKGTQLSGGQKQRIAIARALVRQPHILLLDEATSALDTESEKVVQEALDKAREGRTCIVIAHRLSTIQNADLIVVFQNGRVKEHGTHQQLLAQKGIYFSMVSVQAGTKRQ

| SMILES | Pearson's Correlation Coeff | other results |
| --- | --- | --- |
| COc1ccc2cc(CNCCCCCCCCNCc3ccc4cc(OC)ccc4c3)ccc2c1 [NSC676427] | 0.1843 |  |
| CCOC(=O)NC1CC2CCC1(OC)C=C2C (centres unmarked) [NSC 617278] |  | Correlation of antiproliferative activity with ABCB1 expression: 0.424 |
| C[N+]1(C)C/C(=C\C=C\c2ccccc2)C(=O)/C(=C/C=C/c2ccccc2)C1.[I-] [NSC 636679] |  | Correlation: −0.5530 |
| CSc1sc(=S)sc1SC [NSC 627450] |  | Correlation of antiproliferative activity with ABCB1 expression: 0.4454 |
| COc1cccc2c1C(=O)c1c(O)c3c(c(O)c1C2=O)C[C@@](O)(C(C)=O)C[C@@H]3OC1CC(N(Cc2ccccc2)Cc2ccccc2)C(O)C(C)O1.Cl (some centres unmarked) [NSC268242] | 0.2268 |  |
| CCc1ccccc1N1CCN(C(=O)c2cc(OC)c(OC)c(OC)c2)CC1 [NSC56030] | 0.2372 |  |
| CCC1=NC(N/N=C/c2ccccc2O)=N/C1=C\c1ccccc1O [NSC 697678] |  | Correlation of antiproliferative activity with ABCB1 expression: 0.4314 |
| O=C1C=CC(=O)c2c(O)ccc(O)c21 [NSC26647] | 0.2476 |  |
| COc1ccc(C2COc3cc(O)c(O)cc3C2)cc1 (centres unmarked) [NSC600285] | 0.2935 |  |
| CC(C)(C)N1CC1CNC(=O)C(=O)NCC1CN1C(C)(C)C (centres unmarked) [NSC298276] | 0.3398 |  |
| COc1ccc(C(=O)c2cc(OC)c(OC)c(OC)c2)cc1 [NSC638498] | 0.2464 |  |
| CCc1nc(N)nc(N)c1-c1ccc2nn(-c3ccccc3)[n+]([O-])c2c1 [NSC382054] | 0.3151 |  |
| CC(C)OC(=S)Nc1ccc(Cl)c(/C=N/OC(C)(C)C)c1 [NSC 645542] |  | Correlation of antiproliferative activity with ABCB1 expression: 0.3924 |
| CCC(C)SC1SCC2C(=O)N(C)C3(CC3C)C(=O)OCC(NC(=O)c3nc4ccccc4cc3O)C(=O)NC(C)C(=O)N(C)C1C(=O)N(C)C1(CC1C)C(=O)OCC(NC(=O)c1nc3ccccc3cc1O)C(=O)NC(C)C(=O)N2C (centres unmarked) [NSC 630678] |  | Correlation: −0.7029 |
| CC(C)=CCC[C@@H](C)c1c2ncc[nH]c-2c(C)c(=O)c1O [NSC697135] | 0.4052 | Correlation of antiproliferative activity with ABCB1 expression: 0.4249 |
| O=C1c2ccccc2C(=O)c2c1nc1ccccc1c2-c1cncc(-c2c3c(nc4ccccc24)C(=O)c2ccccc2C3=O)c1 [NSC694490] | 0.2438 |  |
| Cc1ccc(C2COc3cc(O)c(O)cc3C2)cc1 (centres unmarked) [NSC600286] | 0.2177 |  |
| CN(C)CCN1C(=O)c2cccc3cc([N+](=O)[O-])cc(c23)C1=O [NSC300288] | 0.2734 |  |
| C[C@]12CC[C@@H]3c4cc(OCC(F)(F)F)c(O)cc4/C(=N/O)C[C@H]3[C@@H]1CC[C@@H]2O [NSC681683] | 0.2079 |  |
| C(=N\NC1=NCCN1)/c1c2ccccc2c(/C=N/NC2=NCCN2)c2ccccc12 [bisantrene, reference compound] |  | Relationship between drug sensitivity and ABCB1 expression (in words) (set of 118 compounds with putatively known mechanisms of action, FIG. 2): striking inverse correlations |
| Nc1nc(N)c2nc(CNc3ccc(C(=O)N[C@@H](CCCNC(=O)c4ccccc4C(=O)O)C(=O)O)cc3)cnc2n1 [NSC633713] | 0.2908 |  |
| CCc1nc(N)nc(N)c1-c1ccc(Cl)c(N=[N+]=[N-])c1 [NSC319947] | 0.3098 |  |
| Cc1ccc2nc3c(C(=O)NCCN(C)C)cccc3cc2c1.Cl [NSC 617963] |  | Correlation of antiproliferative activity with ABCB1 expression: 0.5317 |
| CNC1=C(C)C(=O)C(O)=C([C@H](C)CCC=C(C)C)C1=O [NSC697128] | 0.4568 | Correlation of antiproliferative activity with ABCB1 expression: 0.4349 |
| COc1cccc2c1C(=O)c1c(O)c3c(c(O)c1C2=O)C[C@@](O)(C(=O)CO)C[C@@H]3O[C@H]1C[C@H](N)[C@H](O)[C@H](C)O1 [doxorubicin, reference compound] |  | Relationship between drug sensitivity and ABCB1 expression (in words): striking inverse correlations |
| O=c1[nH]cc(F)c(=O)[nH]1 [5-fluorouracil, reference compound] |  | Relationship between drug sensitivity and ABCB1 expression (in words): non-correlated or positively correlated |
| Cl.Oc1c(CN2CCCC2)ccc2cccnc12 [NSC693871] | 0.6160 | Correlation of antiproliferative activity with ABCB1 expression: 0.6811 |

| SMILES | Pearson's Correlation Coeff | other results |
| --- | --- | --- |
| CC(=O)O[C@H]1C(=O)[C@@]2(C)[C@H]([C@H](OC(=O)c3ccccc3)[C@]3(O)C[C@H](OC(=O)[C@H](O)[C@@H](NC(=O)c4ccccc4)c4ccccc4)C(C)=C1C3(C)C)[C@]1(OC(C)=O)CO[C@@H]1C[C@@H]2O [paclitaxel, reference compound] |  | Relationship between drug sensitivity and ABCB1 expression (in words): striking inverse correlations |
| CCc1nc(N)nc(N)c1-c1ccc(Cl)c([N+](=O)[O-])c1 [NSC302325] | 0.2979 |  |
| C=C1C(=O)O[C@H]2[C@H]1[C@@H](OC(=O)C=C(C)C)CC1=C[C@@H](C[C@@]3(C)O[C@@H]23)OC1=O [NSC102817] | 0.2813 |  |
| O=C(/C=C/c1ccc(Cl)cc1)c1ccccc(=O)c1O [NSC 356777] |  | Correlation of antiproliferative activity with ABCB1 expression: 0.4021 |
| COc1ccc(O)c(/C=N/NC(=S)N2CCCCC2)c1 [NSC689529] | 0.3465 |  |
| COc1cc(/C=C2\CCC/C(=C\c3ccc(O)c(OC)c3)C2=O)ccc1O [NSC652893] | 0.2821 |  |
| CCc1nc(N)nc(N)c1-c1ccc2c(c1)nnn2CCc1ccccc1 [NSC382053] | 0.3841 |  |
| Oc1c(CN2CCN(c3ccccc3)CC2)cc(Br)c2cccnc12 [NSC 117028] |  | Correlation of antiproliferative activity with ABCB1 expression: 0.3579 |
| Cc1cc(C)n(-c2nc3ccccc3c(=O)[nH]2)n1 [NSC691081] | 0.4305 |  |
| COc1cc([C@@H]2c3[nH]c4ccccc4c3C[C@H]3COC(=O)N32)cc(OC)c1O [NSC640737] | 0.2176 |  |
| O=c1cc(-c2ccccc2F)[nH]c2cc3c(cc12)OCO3 [NSC656158] | 0.2218 |  |
| O=[N+]([O-])C(=C\c1cccs1)/C(=C/c1cccs1)[N+](=O)[O-] [NSC693131] | 0.2788 |  |
| COC1=C2C[C@@H](C)C[C@H](OC)[C@H](O)[C@@H](C)/C=C(\C)[C@H](OC(N)=O)[C@@H](OC)/C=C\C=C(/C)C(=O)NC(=CC1=O)C2=O [geldamycin, reference compound] |  | Relationship between drug sensitivity and ABCB1 expression (in words): striking inverse correlations |
| O=C(CCc1nnc2s/c(=C\c3ccc4c(c3)OCO4)c(=O)n12)Nc1cc(Cl)ccc1Cl [NSC 635543] |  | Correlation of antiproliferative activity with ABCB1 expression: 0.3514 |
| S=C(N/N=C\C=N/NC(=S)N1CCCCC1)N1CCCCC1 [NSC693323] | 0.3180 |  |
| CC[C@@]1(O)C[C@H](O[C@H]2C[C@H](N(C)C)[C@H](O)[C@H](C)O2)c2c(cc3c(c2O)C(=O)c2c(O)ccc(O)c2C3=O)[C@H]1C(=O)OC [NSC267229] | 0.3505 |  |
| O=C(O)Cc1cccc2c(=O)cc(-c3ccccc3)oc12 [NSC 347512] |  | Correlation of antiproliferative activity with ABCB1 expression: 0.4109 |
| Cc1c(CNc2ccc(Cl)c(C(=O)NC(CC(=O)O)C(=O)O)c2)ccc2nc(N)nc(N)c12 (centres unmarked) [NSC132483] | 0.3151 |  |
| Cc1ccc2c(c1)-c1c(C#N)c(N)nc(-c3ccc(Cl)cc3)c1CCS2(=O)=O [NSC691578] | 0.2102 |  |
| C=C(C=O)c1c2c(nc3ccccc13)C(=O)c1ccccc1C2=O [NSC694489] | 0.3742 |  |
| CN(Cc1cnc2nc(N)nc(N)c2n1)c1ccc(C(=O)N[C@@H](CCC(=O)O)C(=O)O)cc1 [methotrexate, reference compound] |  | Relationship between drug sensitivity and ABCB1 expression (in words): non-correlated or positively correlated |
| COc1c(OC(C)=O)c(OC(C)=O)cc2c1-c1ccc(SC)c(=O)cc1C(NC(C)=O)CC2 (centres unmarked) [NSC 374980] |  | Correlation: −0.5590 |
| C[n+]1c2ccccc2n2c3ccccc3c(NCCCn3ccnc3)c(C#N)c21.Cc1ccc(S(=O)(=O)[O-])cc1 [NSC694268] |  | Correlation: −0.5914 |
| Cc1cc(C(=O)NCCN(C)C)c2nc3ccccc3cc2c1.Cl [NSC 617961] |  | Correlation of antiproliferative activity with ABCB1 expression: 0.423 |
| COc1c(C)c(C/C=C(\C)CCCCO[Si](c2ccccc2)(c2ccccc2)C(C)(C)C)c(OC)c(OC)c1OC [NSC 687141] |  | Correlation of antiproliferative activity with ABCB1 expression: 0.3774 |
| [Se]=P(c1ccccc1)(c1ccccc1)c1ccc(C(c2ccccc2)=P(c2ccccc2)(c2ccccc2)c2ccccc2)cc1 [NSC 676864] |  | Correlation: −0.6546 |
